From article PMC12165416, “HarmGR13 mediates myo-inositol taste perception in Helicoverpa armigera larvae” (PLOS Genetics, 2025)

What was measured:
Experiment in all cases: two-electrode voltage clamp, Xenopus oocytes, inward current
Type in all cases: cell-based
HarmGR13 [1] = target: T1, HarmGR13 (Helicoverpa armigera, UniProt Z9NT97MFL8, D92A); details: Ringer's solution pH 7.6, -80 mV; 100 mM inositol
T1 construct: full-length, 436 aa; cDNA from larval maxillary galea; pCS2+ cRNA injected into Xenopus laevis oocytes; expressed alone
T1 sequence (Z9NT97MFL8 1-436 D92A): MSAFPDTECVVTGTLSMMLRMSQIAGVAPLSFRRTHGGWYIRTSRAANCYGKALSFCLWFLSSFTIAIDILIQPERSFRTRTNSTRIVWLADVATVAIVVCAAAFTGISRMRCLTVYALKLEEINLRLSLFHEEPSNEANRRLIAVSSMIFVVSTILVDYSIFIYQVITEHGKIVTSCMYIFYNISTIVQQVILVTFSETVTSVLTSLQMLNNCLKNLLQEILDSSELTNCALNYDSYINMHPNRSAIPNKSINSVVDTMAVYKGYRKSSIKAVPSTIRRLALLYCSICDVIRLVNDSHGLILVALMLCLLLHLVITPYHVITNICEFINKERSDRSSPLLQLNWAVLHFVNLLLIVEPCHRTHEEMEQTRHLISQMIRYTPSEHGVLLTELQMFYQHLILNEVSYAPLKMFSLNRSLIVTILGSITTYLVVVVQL

HarmGR13 [2] = target: T2, HarmGR13 (Helicoverpa armigera, UniProt Z9NT97MFL8); details: Ringer's solution pH 7.6, -80 mV; agonist; dose-response curve in Fig 5B, EC50 not given
T2 construct: full-length, 436 aa; cDNA from larval maxillary galea; pCS2+ cRNA injected into Xenopus laevis oocytes; expressed alone
T2 sequence (Z9NT97MFL8 1-436): T1 sequence (Z9NT97MFL8 1-436 D92A)

HarmGR13 [3] = target: T3, HarmGR13 (Helicoverpa armigera, UniProt Z9NT97MFL8, D159A); details: Ringer's solution pH 7.6, -80 mV; 100 mM inositol
T3 construct: full-length, 436 aa; cDNA from larval maxillary galea; pCS2+ cRNA injected into Xenopus laevis oocytes; expressed alone
T3 sequence (Z9NT97MFL8 1-436 D159A): T1 sequence (Z9NT97MFL8 1-436 D92A)

HarmGR13 [4] = target: T1, HarmGR13; details: Ringer's solution pH 7.6, -80 mV; 500 mM ribose
HarmGR13 [5] = target: T3, HarmGR13; details: Ringer's solution pH 7.6, -80 mV; 500 mM ribose

Row | SMILES | inward current at 100 mM (HarmGR13 [1]) | threshold concentration (HarmGR13 [2]) [mM] | inward current at 100 mM (HarmGR13 [3]) | inward current at 500 mM (HarmGR13 [4]) | inward current at 500 mM (HarmGR13 [5])
1 | O[C@H]1[C@H](O)[C@@H](O)[C@H](O)[C@@H](O)[C@H]1O [myo-inositol] | each of three mutated HarmGR13 did not show any inward currents | 1 | each of three mutated HarmGR13 did not show any inward currents |  | 
2 | OC1OC[C@@H](O)[C@@H](O)[C@H]1O (stereo partly drawn) [ribose] |  | 10 |  | each of three mutated HarmGR13 did not show any inward currents | each of three mutated HarmGR13 did not show any inward currents
